Biological target: T1, wildtype HIV-1 protease (Human immunodeficiency virus type 1 group M subtype B, UniProt P04585)
T1 construct: the wildtype HIV-1 protease (which was expressed in Escherichia coli); made in house; host or cells: Escherichia coli
Experiment: Assay for inhibition of microbial expressed HIV protease (Pepcleav)
Assay type: biochemical
Conditions: Pepcleav (nM)
Description: Assay for Inhibition of Microbial Expressed HIV Protease (“Pepcleav”)
Studies of the inhibition of the wildtype HIV-1 protease (which was expressed in Escherichia coli) were carried out with a peptide substrate [Val-Ser-Gln-Asn-(βnaphthyl)Ala-Pro-Ile-Val (SEQ ID NO:1)]. The inhibitor is first preincubated with the HIV-1 protease (wild type) enzyme in assay buffer (50 mM sodium acetate, pH 5.5, 100 mM NaCl, and 0.1% BSA) for 30 minutes at room temperature. Substrate is added to 400 micromolar in a total volume of 20 microliters containing 20 picomolar HIV-1 protease (final) and the reaction is incubated for 1 hour at 30° C. The reaction is quenched with the addition of formic acid and indinavir to 0.012% and 150 nM final concentrations, respectively. The product formation is determined after separation of product and substrate on a Zorbax Eclipse XDB-C 18 column connected to an API 4000 mass spectrometer (Applied Biosystems) with multiple reaction monitoring (transitions were 644.5/428.9 and 615.4/422.2 (M1/M3) for product and indinavir respectively). The extent of inhibition of the reaction is determined from the peak area of the products.

SMILES	IC50
COC(=O)N[C@H](C(=O)Nc1ccccc1CC[C@@H]1CN[C@H](COC(=O)N[C@H]2CO[C@H]3OCC[C@H]32)CO1)C(c1ccccc1)c1ccccc1 [Example 13, N-(2-{2-[(2R,5S)-5-({[(3R,3aS,6aR)-hexahydrofuro[2,3-b]furan-3-ylcarbamoyl]oxy}methyl)morpholin-2-yl]ethyl}phenyl)-Nα-(methoxycarbonyl)-β-phenyl-L-phenylalaninamide]	110 nM

Same assay, conditions: wild type HIV-1 protease expressed in E. coli, peptide substrate, pH 5.5; mean of at least two independent experiments; read-out: Pepcleav

SMILES	IC50
COC(=O)N[C@H](C(=O)Nc1ccccc1CC[C@@H]1CN[C@H](C(=O)O)CO1)C(c1ccccc1)c1ccccc1 [Example 1, (3S,6R)-6-[2-(2-{[N-(methoxycarbonyl)-β-phenyl-L-phenylalanyl]amino}phenyl)ethyl]morpholine-3-carboxylic acid]	65 nM
COC(=O)N[C@H](C(=O)Nc1ccccc1CC[C@@H]1CN[C@H](C(=O)NCc2ccccc2)CO1)C(c1ccccc1)c1ccccc1 [Example 2, N-(2-{2-[(2R,5S)-5-(benzylcarbamoyl)morpholin-2-yl]ethyl}phenyl)-Nα-(methoxycarbonyl)-β-phenyl-L-phenylalaninamide]	1.4 nM
CCNC(=O)[C@@H]1CO[C@H](CCc2ccccc2NC(=O)[C@@H](NC(=O)OC)C(c2ccccc2)c2ccccc2)CN1 [Example 3, N-(2-{2-[(2R,5S)-5-(ethylcarbamoyl)morpholin-2-yl]ethyl}phenyl)-Nα-(methoxycarbonyl)-β-phenyl-L-phenylalaninamide]	15 nM
COC(=O)N[C@H](C(=O)Nc1ccccc1CC[C@@H]1CN[C@H](C(=O)NC2CCOC2)CO1)C(c1ccccc1)c1ccccc1 (stereo partly drawn) [Example 4, Nα-(methoxycarbonyl)-β-phenyl-N-(2-{2-[(2R,5S)-5-(tetrahydrofuran-3-ylcarbamoyl)morpholin-2-yl]ethyl}phenyl)-L-phenylalaninamide]	25 nM
COC(=O)N[C@H](C(=O)Nc1ccccc1CC[C@@H]1CN[C@H](C(=O)N2CCCC2)CO1)C(c1ccccc1)c1ccccc1 [Example 5, Nα-(methoxycarbonyl)-β-phenyl-N-(2-{2-[(2R,5S)-5-(pyrrolidin-1-ylcarbonyl)morpholin-2-yl]ethyl}phenyl)-L-phenylalaninamide]	80 nM
COC(=O)N[C@H](C(=O)Nc1ccccc1CC[C@@H]1CN[C@H](C(=O)NCCc2ccccc2)CO1)C(c1ccccc1)c1ccccc1 [Example 6, Nα-(methoxycarbonyl)-β-phenyl-N-[2-(2-{(2R,5S)-5-[(2-phenylethyl)carbamoyl]morpholin-2-yl}ethyl)phenyl]-L-phenylalaninamide]	9.9 nM
COC(=O)N[C@H](C(=O)Nc1ccccc1CC[C@@H]1CN[C@H](C(=O)Nc2ccccc2)CO1)C(c1ccccc1)c1ccccc1 [Example 7, Nα-(methoxycarbonyl)-β-phenyl-N-(2-{2-[(2R,5S)-5-(phenylcarbamoyl)morpholin-2-yl]ethyl}phenyl)-L-phenylalaninamide]	0.8 nM
COC(=O)N[C@H](C(=O)Nc1ccccc1CC[C@@H]1CN[C@H](C(=O)NC(C)(C)C)CO1)C(c1ccccc1)c1ccccc1 [Example 8, N-(2-{2-[(2R,5S)-5-(tert-butylcarbamoyl)morpholin-2-yl]ethyl}phenyl)-Nα-(methoxycarbonyl)-β-phenyl-L-phenylalaninamide]	41 nM
COC(=O)N[C@H](C(=O)Nc1ccccc1CC[C@@H]1CN[C@H](C(=O)NNc2ccccc2)CO1)C(c1ccccc1)c1ccccc1 [Example 9, Nα-(methoxycarbonyl)-β-phenyl-N-[2-(2-{(2R,5S)-5-[(2-phenylhydrazinyl)carbonyl]morpholin-2-yl}ethyl)phenyl]-L-phenylalaninamide]	88 nM
COC(=O)N[C@H](C(=O)Nc1ccccc1CC[C@@H]1CN[C@H](C(=O)NS(=O)(=O)c2ccccc2)CO1)C(c1ccccc1)c1ccccc1 [Example 10, Nα-(methoxycarbonyl)-β-phenyl-N-[2-(2-{(2R,5S)-5-[(phenylsulfonyl)carbamoyl]morpholin-2-yl}ethyl)phenyl]-L-phenylalaninamide]	17 nM
COC(=O)N[C@H](C(=O)Nc1ccccc1CC[C@@H]1CN[C@H](C(N)=O)CO1)C(c1ccccc1)c1ccccc1 [Example 11, methyl [(1S)-2-[(2-{2-[(2R,5S)-5-(aminocarbonyl)morpholin-2-yl]ethyl}phenyl)amino]-1-(diphenylmethyl)-2-oxoethyl]carbamate]	80 nM
COC(=O)N[C@H](C(=O)Nc1ccccc1CC[C@@H]1CN[C@H](COC(=O)NCc2ccccc2F)CO1)C(c1ccccc1)c1ccccc1 [Example 12, N-(2-{2-[(2R,5S)-5-({[(2-fluorobenzyl)carbamoyl]oxy}methyl)morpholin-2-yl]ethyl}phenyl)-Nα-(methoxycarbonyl)-β-phenyl-L-phenylalaninamide]	3.6 nM
COC(=O)N[C@H](C(=O)Nc1ccccc1CC[C@@H]1CN[C@H](COC(=O)N[C@H]2c3ccccc3C[C@H]2O)CO1)C(c1ccccc1)c1ccccc1 [Example 14, N-[2-(2-{(2R,5S)-5-[({[(1S,2R)-2-hydroxy-2,3-dihydro-1H-inden-1-yl]carbamoyl}oxy)methyl]morpholin-2-yl}ethyl)phenyl]-Nα-(methoxycarbonyl)-β-phenyl-L-phenylalaninamide]	17 nM
COC(=O)N[C@H](C(=O)Nc1ccccc1CC[C@@H]1CN[C@H](COC(=O)NC2CCc3ccccc32)CO1)C(c1ccccc1)c1ccccc1 (stereo partly drawn) [Example 15, N-(2-{2-[(2R,5S)-5-{[(2,3-dihydro-1H-inden-1-ylcarbamoyl)oxy]methyl}morpholin-2-yl]ethyl}phenyl)-Nα-(methoxycarbonyl)-β-phenyl-L-phenylalaninamide]	4.1 nM
COC(=O)N[C@H](C(=O)Nc1ccccc1CC[C@@H]1CN[C@H](COC(=O)NCc2ccc(F)cc2)CO1)C(c1ccccc1)c1ccccc1 [Example 16, methyl N-[(1S)-1-benzhydryl-2-[[2-[2-[(2R,5S)-5-[(4-fluorophenyl)methylcarbamoyloxymethyl]morpholin-2-yl]ethyl]phenyl]amino]-2-oxo-ethyl]carbamate]	5.9 nM
COC(=O)N[C@H](C(=O)Nc1ccccc1CC[C@@H]1CN[C@H](COC(=O)NCC(F)(F)F)CO1)C(c1ccccc1)c1ccccc1 [Example 17, methyl N-[(1S)-1-benzhydryl-2-oxo-2-[[2-[2-[(2R,5S)-5-(2,2,2-trifluoroethylcarbamoyloxymethyl)morpholin-2-yl]ethyl]phenyl]amino]ethyl]carbamate]	27 nM
COC(=O)N[C@H](C(=O)Nc1ccccc1CC[C@@H]1CN[C@H](COC(=O)NCc2cccc3ccncc23)CO1)C(c1ccccc1)c1ccccc1 [Example 18, methyl N-[(1S)-1-benzhydryl-2-[[2-[2-[(2R,5S)-5-(8-isoquinolylmethylcarbamoyloxymethyl)morpholin-2-yl]ethyl]phenyl]amino]-2-oxo-ethyl]carbamate]	28 nM
COC(=O)N[C@H](C(=O)Nc1ccccc1CC[C@@H]1CN[C@H](COC(=O)NCc2cncs2)CO1)C(c1ccccc1)c1ccccc1 [Example 19, methyl N-[(1S)-1-benzhydryl-2-oxo-2-[[2-[2-[(2R,5S)-5-(thiazol-5-ylmethylcarbamoyloxymethyl)morpholin-2-yl]ethyl]phenyl]amino]ethyl]carbamate]	48 nM
COC(=O)N[C@H](C(=O)Nc1ccccc1CC[C@@H]1CN[C@H](COC(=O)NCc2cccnc2)CO1)C(c1ccccc1)c1ccccc1 [Example 20, methyl N-[(1S)-1-benzhydryl-2-oxo-2-[[2-[2-[(2R,5S)-5-(3-pyridylmethylcarbamoyloxymethyl)morpholin-2-yl]ethyl]phenyl]amino]ethyl]carbamate]	78 nM
COC(=O)N[C@H](C(=O)Nc1ccccc1CC[C@@H]1CN[C@H](COC(=O)NCc2ccc3nonc3c2)CO1)C(c1ccccc1)c1ccccc1 [Example 21, methyl N-[(1S)-1-benzhydryl-2-[[2-[2-[(2R,5S)-5-(2,1,3-benzoxadiazol-5-ylmethylcarbamoyloxymethyl)morpholin-2-yl]ethyl]phenyl]amino]-2-oxo-ethyl]carbamate]	52 nM
COC(=O)N[C@H](C(=O)Nc1ccccc1CC[C@@H]1CN[C@H](COC(=O)NCC2CC2)CO1)C(c1ccccc1)c1ccccc1 [Example 22, methyl N-[(1S)-1-benzhydryl-2-[[2-[2-[(2R,5S)-5-(cyclopropylmethylcarbamoyloxymethyl)morpholin-2-yl]ethyl]phenyl]amino]-2-oxo-ethyl]carbamate]	58 nM
COC(=O)N[C@H](C(=O)Nc1ccccc1CC[C@@H]1CN[C@H](COC(=O)NC2CCC2)CO1)C(c1ccccc1)c1ccccc1 [Example 23, methyl N-[(1S)-1-benzhydryl-2-[[2-[2-[(2R,5S)-5-(cyclobutylcarbamoyloxymethyl)morpholin-2-yl]ethyl]phenyl]amino]-2-oxo-ethyl]carbamate]	80 nM
COC(=O)N[C@H](C(=O)Nc1ccccc1CC[C@@H]1CN[C@H](COC(=O)NCC(F)F)CO1)C(c1ccccc1)c1ccccc1 [Example 24, methyl N-[(1S)-1-benzhydryl-2-[[2-[2-[(2R,5S)-5-(2,2-difluoroethylcarbamoyloxymethyl)morpholin-2-yl]ethyl]phenyl]amino]-2-oxo-ethyl]carbamate]	85 nM
CCN(CC)C(=O)OC[C@@H]1CO[C@H](CCc2ccccc2NC(=O)[C@@H](NC(=O)OC)C(c2ccccc2)c2ccccc2)CN1 [Example 25]	120 nM
